What was measured:
[1] = molecular target: T1, GLS1 (purified recombinant human GAC) (Homo sapiens, UniProt O94925); assay: GLS1 enzymatic activity assay (dual-coupled, Amplex UltraRed/resorufin); format: biochemical
T1 sequence (O94925 55-598 isoform O94925-3 limits assumed): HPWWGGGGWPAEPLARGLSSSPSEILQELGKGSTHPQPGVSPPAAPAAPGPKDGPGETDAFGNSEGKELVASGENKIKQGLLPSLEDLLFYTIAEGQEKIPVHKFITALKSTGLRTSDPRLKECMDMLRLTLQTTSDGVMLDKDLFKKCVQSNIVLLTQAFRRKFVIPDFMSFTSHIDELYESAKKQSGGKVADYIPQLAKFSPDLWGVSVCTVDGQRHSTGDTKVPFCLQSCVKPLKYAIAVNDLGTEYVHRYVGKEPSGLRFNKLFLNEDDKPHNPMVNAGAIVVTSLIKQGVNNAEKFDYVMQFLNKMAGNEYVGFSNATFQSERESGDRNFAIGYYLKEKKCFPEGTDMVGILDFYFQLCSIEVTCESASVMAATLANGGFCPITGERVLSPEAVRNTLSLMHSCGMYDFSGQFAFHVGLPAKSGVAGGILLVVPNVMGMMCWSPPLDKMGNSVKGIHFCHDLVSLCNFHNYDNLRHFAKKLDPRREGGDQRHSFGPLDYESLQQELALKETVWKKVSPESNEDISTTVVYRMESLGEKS
Protocol: GLS1 Enzymatic Activity Assay
The inhibition of purified recombinant human GAC by varying concentrations of inhibitors is assessed via a dual-coupled enzymatic assay. The glutamate produced by the glutaminase reaction is used by glutamate oxidase to produce α-ketoglutarate, ammonia, and hydrogen peroxide, with this hydrogen peroxide subsequently being used by horseradish peroxidase to produce resorufin in the presence of Amplex UltraRed. The assay buffer consisted of 50 mM Hepes (pH 7.4), 0.25 mM EDTA and 0.1 mM Triton X-100. GAC was incubated with potassium phosphate (10 minutes at room temperature) prior to incubation with inhibitor (10 minutes at room temperature). The final reaction conditions were as follows: 2 nM GAC, 50 mM potassium phosphate, 100 mU/mL glutamate oxidase (Sigma), 1 mM glutamine (Sigma), 100 mU/mL horseradish peroxidase (Sigma), 75 μM Amplex UltraRed (Life Technologies), and 1% (v/v) DMSO. The production of resorufin was monitored on a Perkin Elmer Envision plate reader (excitation 530 nm, emission 590 nm) either in a kinetics or endpoint mode (at 20 minutes). IC50 values were calculated using a four-parameter logistic curve fit.

A549 cells = assay: A549 proliferation (viability) assay, Cell Titer Fluor, 72 hours; format: cell-based; conditions: Homo sapiens
Protocol: A549 cells were routinely maintained in RPMI 1640 media (Gibco catalog number 11875-093) supplemented with 10% dialyzed fetal bovine serum using a humidified incubator (37° C., 5% CO2 and ambient O2). In preparation for the viability assay, cells were inoculated into 384-well black CulturPlates (Perkin Elmer) at a density of 1000 cells/well in a volume of 40 uL. Following a 24-hour incubation at 37° C., 5% CO2 and ambient O2, cells were treated with compound (10 uL) in a final DMSO concentration of 0.5% (v/v). The microplates were then incubated for 72 hours (37° C., 5% CO2 and ambient O2). Cell Titer Fluor (Promega) was subsequently added (10 uL of 6× reagent) and mixed for 15 minutes at room temperature. The plates were then incubated for 30 minutes (37° C., 5% CO2 and ambient O2) and fluorescence was subsequently read on the Perkin Elmer Envision plate reader. EC50 values were calculated using a four-parameter logistic curve fit.

| SMILES | IC50 [1] | EC50 (A549 cells) |
| --- | --- | --- |
| O=C(Cc1ccccc1)Nc1ccc(CCCCn2ccc(NC(=O)Oc3ccccc3)nc2=O)nn1 [Example 97, phenyl N-(2-oxo-1-{4-[6-(2-phenylacetamido)pyridazin-3-yl]butyl}-1,2-dihydropyrimidin-4-yl)carbamate] | 100 to 500 nM | > 5000 nM |
| O=C(NCc1cncc(C(F)(F)F)c1)c1cn(CC(F)CCn2ccc(NC(=O)C3CCCC3)c(F)c2=O)nn1 (stereo not drawn) [Example 364, 1-[4-(4-cyclopentaneamido-3-fluoro-2-oxo-1,2-dihydropyridin-1-yl)-2-fluorobutyl]-N-{[5-(trifluoromethyl)pyridin-3-yl]methyl}-1H-1,2,3-triazole-4-carboxamide] | < 100 nM | < 100 nM |
| CC(C)OC(=O)Nc1ccn(CCCCc2ccc(NC(=O)Cc3ccccc3)nn2)c(=O)n1 [Example 94, propan-2-yl N-(2-oxo-1-{4-[6-(2-phenylacetamido)pyridazin-3-yl]butyl}-1,2-dihydropyrimidin-4-yl)carbamate] | < 100 nM | 100 to 500 nM |
| O=C(CC1CCC1)Nc1ccn(CCC(F)Cn2cc(C(=O)NCc3ncccc3F)nn2)c(=O)c1F (stereo not drawn) [Example 356, 1-{4-[4-(2-cyclobutylacetamido)-3-fluoro-2-oxo-1,2-dihydropyridin-1-yl]-2-fluorobutyl}-N-[(3-fluoropyridin-2-yl)methyl]-1H-1,2,3-triazole-4-carboxamide] | 100 to 500 nM | 100 to 500 nM |
| O=C(O)C(=O)Nc1ccn(CCC(F)Cn2cc(C(=O)NCc3cccc(OC(F)(F)F)c3)nn2)c(=O)c1F (stereo not drawn) [Example 359, [(3-fluoro-1-{3-fluoro-4-[4-({[3-(trifluoromethoxy)phenyl]methyl}carbamoyl)-1H-1,2,3-triazol-1-yl]butyl}-2-oxo-1,2-dihydropyridin-4-yl)carbamoyl]formic acid] | 100 to 500 nM | 500 to 5000 nM |
| O=C(Cc1cccc(OC(F)(F)F)c1)Nc1nnc(CCCCn2ccc(NC(=O)CC3CCCC3)c(F)c2=O)s1 [Example 503, 2-cyclopentyl-N-{3-fluoro-2-oxo-1-[4-(5-{2-[3-(trifluoromethoxy)phenyl]acetamido}-1,3,4-thiadiazol-2-yl)butyl]-1,2-dihydropyridin-4-yl}acetamide] | < 100 nM | < 100 nM |
| O=C(CC1CCC1)Nc1ccn(CCC(F)Cn2cc(C(=O)NCc3ccc(OC(F)(F)F)cn3)nn2)c(=O)c1F (stereo not drawn) [Example 389, 1-{4-[4-(2-cyclobutylacetamido)-3-fluoro-2-oxo-1,2-dihydropyridin-1-yl]-2-fluorobutyl}-N-{[5-(trifluoromethoxy)pyridin-2-yl]methyl}-1H-1,2,3-triazole-4-carboxamide] | < 100 nM | < 100 nM |
| CC(C)COC(=O)Nc1ccn(CCCCc2ccc(NC(=O)Cc3ccccc3)nn2)c(=O)n1 [Example 98, 2-methylpropyl N-(2-oxo-1-{4-[6-(2-phenylacetamido)pyridazin-3-yl]butyl}-1,2-dihydropyrimidin-4-yl)carbamate] | < 100 nM | 100 to 500 nM |
| COCCNC(=O)c1nnc(CCCCn2ccc(NC(=O)Cc3cccc(OC(F)(F)F)c3)cc2=O)s1 [Example 450, N-(2-methoxyethyl)-5-[4-(2-oxo-4-{2-[3-(trifluoro-methoxy)phenyl]acetamido}-1,2-dihydropyridin-1-yl)butyl]-1,3,4-thiadiazole-2-carboxamide] | 100 to 500 nM | 500 to 5000 nM |
| O=C(Cc1ccccc1)Nc1ccn(CCC(F)Cn2cc(C(=O)NCc3cc(Cl)ccc3F)nn2)c(=O)c1 (stereo not drawn) [Example 216, N-[(5-chloro-2-fluorophenyl)methyl]-1-{2-fluoro-4-[2-oxo-4-(2-phenylacetamido)-1,2-dihydropyridin-1-yl]butyl}-1H-1,2,3-triazole-4-carboxamide] | < 100 nM | 100 to 500 nM |
| CC(C)C(=O)Nc1ccn(CCCCn2cc(C(=O)NCc3cccc(OC(F)(F)F)c3)nn2)c(=O)c1 [Example 54, 1-{4-[4-(2-methylpropanamido)-2-oxo-1,2-dihydropyridin-1-yl]butyl}-N-{[3-(trifluoromethoxy)phenyl]methyl}-1H-1,2,3-triazole-4-carboxamide] | 100 to 500 nM | 500 to 5000 nM |
| CC(C)CC(=O)Nc1ccn(CCCCn2cc(C(=O)NCc3cccc(OC(F)(F)F)c3)nn2)c(=O)c1 [Example 5, 1-(4-(4-(3-methylbutanamido)-2-oxopyridin-1(2H)-yl)butyl)-N-(3-(trifluoromethoxy)benzyl)-1H-1,2,3-triazole-4-carboxamide] | < 100 nM | 100 to 500 nM |

Second part, the compound after the results:

| IC50 [1] | EC50 (A549 cells) | SMILES |
| --- | --- | --- |
| < 100 nM | < 100 nM | O=C(CC1CCC1)Nc1ccn(CCC(F)Cn2cc(C(=O)NCc3cccc(OC(F)(F)F)c3)nn2)c(=O)c1 (stereo not drawn) [Example 217, l-{4-[4-(2-cyclobutylacetamido)-2-oxo-1,2-dihydropyridin-1-yl]-2-fluorobutyl}-N-{[3-(trifluoromethoxy)phenyl]methyl}-1H-1,2,3-triazole-4-carboxamide] |
| < 100 nM | < 100 nM | O=C(CC1CCCCC1)Nc1ccn(CCC(F)Cn2cc(C(=O)NCc3cccc(C(F)(F)F)n3)nn2)c(=O)c1F (stereo not drawn) [Example 262, 1-{4-[4-(2-cyclohexylacetamido)-3-fluoro-2-oxo-1,2-dihydropyridin-1-yl]-2-fluorobutyl}-N-{[6-(trifluoromethyl)pyridin-2-yl]methyl}-1H-1,2,3-triazole-4-carboxamide] |
| < 100 nM | < 100 nM | O=C(CN1CCC(F)(F)CC1)Nc1ccn(CCC(F)Cn2cc(C(=O)NCc3cc(C(F)(F)F)ccn3)nn2)c(=O)c1F (stereo not drawn) [Example 416, 1-(4-{4-[2-(4,4-difluoropiperidin-1-yl)acetamido]-3-fluoro-2-oxo-1,2-dihydropyridin-1-yl}-2-fluorobutyl)-N-{[4-(trifluoromethyl)pyridin-2-yl]methyl}-1H-1,2,3-triazole-4-carboxamide] |
| < 100 nM | < 100 nM | Cc1ccc(CNC(=O)c2cn(CC(F)CCn3ccc(NC(=O)CC4CCCCC4)cc3=O)nn2)cn1 (stereo not drawn) [Example 177, 1-{4-[4-(2-cyclohexylacetamido)-2-oxo-1,2-dihydropyridin-1-yl]-2-fluorobutyl}-N-[(6-methylpyridin-3-yl)methyl]-1H-1,2,3-triazole-4-carboxamide] |
| < 100 nM | < 100 nM | O=C(CC1CCC1)Nc1ccn(CCC(F)Cn2cc(C(=O)NCc3cncc(C(F)(F)F)c3)nn2)c(=O)c1F (stereo not drawn) [Example 350, 1-{4-[4-(2-cyclobutylacetamido)-3-fluoro-2-oxo-1,2-dihydropyridin-1-yl]-2-fluorobutyl}-N-{[5-(trifluoromethyl)pyridin-3-yl]methyl}-1H-1,2,3-triazole-4-carboxamide] |
| < 100 nM | < 100 nM | O=C(Cc1ccccc1)Nc1ccn(CC(F)CCn2cc(C(=O)NCc3cc(OC(F)(F)F)ccc3F)nn2)c(=O)c1 (stereo not drawn) [Example 13, 1-(3-fluoro-4-(2-oxo-4-(2-phenylacetamido)pyridin-1(2H)-yl)butyl)-N-(2-fluoro-5-(trifluoromethoxy)benzyl)-1H-1,2,3-triazole-4-carboxamide] |
| < 100 nM | < 100 nM | O=C(Cc1cccc(OC(F)(F)F)c1)Nc1ccn(CCCCc2nnc(C(=O)NCc3cccc(OC(F)(F)F)c3)s2)c(=O)c1 [Example 439, 5-[4-(2-oxo-4-{2-[3-(trifluoromethoxy)phenyl]acetamido}-1,2-dihydropyridin-1-yl)butyl]-N-{[3-(trifluoromethoxy)phenyl]methyl}-1,3,4-thiadiazole-2-carboxamide] |
| < 100 nM | < 100 nM | O=C(Cc1ccccc1)Nc1ccn(CC[C@H](F)Cn2cc(C(=O)NCc3cccc(OC(F)(F)F)c3)nn2)c(=O)c1F [Example 127] |
| < 100 nM | 500 to 5000 nM | COc1ccc(CC(=O)Nc2ccn(CCC(F)Cn3cc(C(=O)NCc4cccc(OC(F)(F)F)c4)nn3)c(=O)c2)cn1 (stereo not drawn) [Example 240, 1-(2-fluoro-4-{4-[2-(6-methoxypyridin-3-yl)acetamido]-2-oxo-1,2-dihydropyridin-1-yl}butyl)-N-{[3-(trifluoromethoxy)phenyl]methyl}-1H-1,2,3-triazole-4-carboxamide] |

From patent US20160002204A1 (Board of Regents, The University of Texas System, priority 2014, published 2016)
